Patent publication US20230286983A1 (4E Therapeutics, Inc., priority 2020, published 2023)
Where two headings read alike, the source gives them in different places.

Experiments:
[1] = Pharmacokinetic study, 4ET-01-021 with IV and PO dosing; format: in vivo, CD-1 male mice; settings: for concentration at 24 h: read-out: Clast; for bioavailability: read-out: F (oral bioavailability)
Procedure: 4ET-01-021 was dissolved in 10% dimethylacetamide (DMA)/90% propylene glycol (PG) for oral dosing and 10% DMI (dimethyl isosorbide)/15% EtOH (ethanol)/35% PG (propylene glycol)/40% NS (normal saline) for IV dosing. CD-1 male mice were dosed with 4ET-01-021 at 1.0 mg/kg (IV), 3.0 mg/kg (PO), or 10.0 mg/kg (PO). Plasma was collected at indicated timepoints and plasma concentration of 4ET-01-021 was measured using liquid chromatography-mass spectrometry/mass spectrometry (LC-MS/MS).
In mice, following IV administration with 1.0 mg/kg, plasma concentrations declined in a multiphasic manner with an initial concentration (Co) of 0.860 μg/mL and a last measurable concentration (Clast) of 19.3 ng/mL at 24 h post dose. […] Results are presented in Table 13; mean values averaged for 3 animals are shown.
Results are presented in Table 14; mean values averaged for 3 animals are shown.
Results are presented in Table 15; mean values averaged for 3 animals are shown.

[2] = test system: eIF4E phosphorylation at Serine 209 in Karpas 299; assay: eIF4E phosphorylation in Karpas 299 cells (sandwich ELISA); format: cell-based; settings: Homo sapiens, read-out: Karpas 299 cell IC50
Procedure: The ability of MNK inhibitors described herein to inhibit eIF4E phosphorylation at Serine 209 in Karpas 299, Human Non-Hodgkin's Ki-positive Large Cell Lymphoma cell line was tested by sandwich enzyme linked immune-absorbance assay.

[3] = IV 1.0 mg/kg, mean of 3 animals
[4] = male, CD-1, mouse, plasma, po, orally dosed at 3 mg/kg, mean of 3 animals
[5] = male, CD-1, mouse, plasma, po, orally dosed at 10 mg/kg, mean of 3 animals
[6] = male, CD-1, mouse, plasma, IV 1.0 mg/kg, mean of 3 animals
[7] = orally dosed at 3 mg/kg, mean of 3 animals
[8] = orally dosed at 10 mg/kg, mean of 3 animals

## CCC1=CC2(CCC1)NC(=O)c1c(C)cc(Nc3cc(N)ncn3)c(=O)n12 (centres unmarked) [Compound 4ET-01-021, 6′-((6-Aminopyrimidin-4-yl)amino)-3-ethyl-8′-methyl-2′H-spiro[cyclohexane-1,3′-imidazo[1,5-a]pyridin]-2-ene-1′,5′-dione]
[1]; [3]
  AUConf/D: 2420 kg·h/kL
  Tlast: 24.0 h
  V55: 3.49 L/kg
[1]; male, CD-1, mouse, plasma, iv, 1 mg/kg, IV 1.0 mg/kg, mean of 3 animals, read-out: AUCinf
  AUC(0-inf): 2420 ng·h/mL
[1]; male, CD-1, mouse, plasma, iv, 1 mg/kg, IV 1.0 mg/kg, read-out: total systemic exposure (AUCinf)
  AUC(0-inf): 2420 ng·h/mL
[1]; male, CD-1, mouse, plasma, po, 3 mg/kg, oral 3 mg/kg, read-out: total systemic exposure (AUCinf)
  AUC(0-inf): 4500 ng·h/mL
[1]; male, CD-1, mouse, plasma, po, 3 mg/kg, orally dosed at 3 mg/kg, mean of 3 animals, read-out: AUCinf
  AUC(0-inf): 4500 ng·h/mL
[1]; male, CD-1, mouse, plasma, po, 10 mg/kg, oral 10 mg/kg, read-out: total systemic exposure (AUCinf)
  AUC(0-inf): 12000 ng·h/mL
[1]; male, CD-1, mouse, plasma, po, 10 mg/kg, orally dosed at 10 mg/kg, mean of 3 animals, read-out: AUCinf
  AUC(0-inf): 12000 ng·h/mL
[1]; [4]
  AUC(0-t): 4130 ng·h/mL
  Cmax: 643 ng/mL
  MRT inf: 8.41 h
  Tmax: 0.5 h
  half-life: 7.11 h
  concentration at 24 h: 36.3 ng/mL
  bioavailability: 61.9%
[1]; [5]
  AUC(0-t): 11000 ng·h/mL
  Cmax: 1900 ng/mL
  MRT inf: 8.51 h
  Tmax: 0.25 h
  half-life: 7.44 h
  concentration at 24 h: 99.5 ng/mL
  bioavailability: 49.6%
[1]; [6]
  AUC(0-t): 2190 ng·h/mL
  MRT inf: 8.32 h
  half-life: 8.42 h
  concentration at 24 h: 19.3 ng/mL
[1]; male, CD-1, mouse, plasma, IV 1.0 mg/kg, mean of 3 animals, read-out: CLp
  clearance: 6.97 mL/min/kg
[1]; male, CD-1, mouse, plasma, IV 1.0 mg/kg, mean of 3 animals, read-out: Vz
  Vd: 5.1 L/kg
[1]; male, CD-1, mouse, plasma, IV 1.0 mg/kg, read-out: initial concentration (Co)
  C0: 860 ng/mL
[1]; [7]
  AUCinf/D: 1500 kg·h/kL
  Tlast: 24 h
[1]; [8]
  AUCinf/D: 1202 kg·h/kL
  Tlast: 24 h

## Cc1cc(Nc2cc(NC(=O)C3CC3)ncn2)c(=O)n2c1C(=O)NC21CCOCC1 [Compound 4ET-03-009, N-(6-((8-Methyl-1,5-dioxo-1,2′,3′,5,5′,6′-hexahydro-2H-spiro[imidazo[1,5-a]pyridine-3,4′-pyran]-6-yl)amino)pyrimidin-4-yl)cyclopropanecarboxamide]
[2]
  IC50: 6.2 nM
